Among the data in publication PMC7139375 (2020) are binding values, retold here.

In test [1] the test system is DDT_13 (DNA, aptamer) TCCAGCACTCCACGCATAACGAATTGTGCTCAATGCGCCCCTGCAGTGAATGTGGAATTTGTTATGCGTGCGACGGTGAA
Description: AuNPs colorimetric assay. The conditions noted are these: room temperature.

For test [2] the test system is unchanged. Put plainly: SYBR Green I fluorescence assay. The conditions noted are these: 137 mM NaCl, 2.5 mM KCl, 0.5 mM MgCl2, 1 mM CaCl2; phosphate binding buffer pH 7.2, room temperature; interferent prepared at 5 μM.

Take `CC(C)(c1cc(Br)c(O)c(Br)c1)c1cc(Br)c(O)c(Br)c1`: the binding result in test [1] (interferent prepared at 7.4 μM) is reported as “no”. With `O=C(O)C(F)(F)C(F)(F)C(F)(F)C(F)(F)C(F)(F)C(F)(F)C(F)(F)F`, the binding entry in test [1] (interferent prepared at 16 μM) is given as “no”. In the case of `O=C(O)C(c1ccc(Cl)cc1)c1ccc(Cl)cc1`, the binding entry in test [2] and in test [1] (interferent prepared at 16 μM) was “no” throughout. As to `CCOC(=O)C(C)=O`, the binding entry in test [1] (interferent prepared at 16 μM) was “no”. In the case of `O=C(O)CNCP(=O)(O)O`, the binding result in test [2] and in test [1] (interferent prepared at 16 μM) was “no” each time.
